The AC50 is the concentration at which the activity in the assay is half-maximal. Broadly, the EC50 is the concentration needed to bring the measured effect to its halfway point. What is called CC50 is the concentration at which the toxic effect on the cells reaches its halfway point.

Calls of active or inactive are those of the source. Where only a bound is given, the exact number is not on record here.

Assay [1] concerns the target T1, Sentrin-specific protease 8 (Homo sapiens, UniProt Q96LD8).
T1 sequence (Q96LD8 whole entry): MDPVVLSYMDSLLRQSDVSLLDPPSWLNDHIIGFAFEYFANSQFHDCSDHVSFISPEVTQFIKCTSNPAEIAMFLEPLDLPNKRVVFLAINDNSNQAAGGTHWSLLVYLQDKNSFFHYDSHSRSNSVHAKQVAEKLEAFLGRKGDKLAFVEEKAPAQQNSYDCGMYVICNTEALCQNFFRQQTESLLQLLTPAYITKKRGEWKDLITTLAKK
Format: functional.

Assay [2] concerns the target T1, Sentrin-specific protease 8. Format: functional. This is another data set of the same source.
The target of assay [3] is Apoptotic protease-activating factor 1 (Homo sapiens, UniProt O14727). Format: functional.
The target in assay [4] is Histone-lysine N-methyltransferase NSD2 (Homo sapiens, UniProt O96028). In kind it is biochemical.
For assay [5], the system named is Streptococcus sp. 'group A'. The assay can be described thus: growth inhibition of control SK(-) GAS strain, dose response, counter-screen for streptokinase expression inhibitor project, luminescence, kanamycin, BacTiterGlo, confirmation (AID 1900). In kind it is functional, organism-based. A general note: A counterscreen serves to expose hits that act by an unwanted route or on another target.

A further assay has as its target T2, Streptokinase A (Streptococcus pyogenes serotype M1, UniProt P10520).
T2 sequence (P10520 whole entry): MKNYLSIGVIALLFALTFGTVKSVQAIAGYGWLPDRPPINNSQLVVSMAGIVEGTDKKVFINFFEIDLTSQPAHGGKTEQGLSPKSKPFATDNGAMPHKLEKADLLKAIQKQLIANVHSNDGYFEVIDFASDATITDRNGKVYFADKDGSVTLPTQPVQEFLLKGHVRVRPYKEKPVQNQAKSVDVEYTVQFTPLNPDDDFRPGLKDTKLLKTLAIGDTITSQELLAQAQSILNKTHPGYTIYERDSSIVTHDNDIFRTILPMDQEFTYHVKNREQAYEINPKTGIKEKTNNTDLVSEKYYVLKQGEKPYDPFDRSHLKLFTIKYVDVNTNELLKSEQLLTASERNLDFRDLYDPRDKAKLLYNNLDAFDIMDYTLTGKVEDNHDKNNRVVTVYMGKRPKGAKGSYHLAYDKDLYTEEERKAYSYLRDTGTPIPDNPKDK
Put plainly: S. pyogenes streptokinase expression inhibitors, potency, dose response, plasminogen activation absorbance, OD405 (AID 1914).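 Also: secreted streptokinase activity via plasminogen activation per viability signal from cell pellet.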 In kind it is functional, Streptococcus pyogenes M1 GAS.

Assay [6] is described as follows: inhibitors of intracellular T. cruzi replication, confirmation, NIH3T3 host cells, beta-gal luminescence (AID 2044).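 Also: intracellular parasites grown in NIH/3T3 mouse fibroblasts as host cells; luminescent beta-galactosidase reporter signal from transgenic T. cruzi replicating inside host cells; inhibitors lower the luminescence signal.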 Format: functional, cell-based.
Assay [7] in a line: cytotoxicity toward NIH3T3 fibroblasts, dose response, counter-screen, cell-based, ATP luminescence, mouse fibroblasts (AID 2010).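 Also: cells exposed to compound for about 90 hours before reading.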 In kind it is functional.
For the next assay, the system named is Streptococcus. Put plainly: Group A Streptococcus viability loss, dose response, counter-screen for streptokinase expression inhibitor project, luminescence, BacTiterGlo (AID 1915).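 Also: potency for reduction of bacterial viability or growth.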 Format: functional, organism-based.
Assay [8] concerns the target Photoreceptor-specific nuclear receptor (Homo sapiens, UniProt Q9Y5X4). Format: functional, cell-based.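 Also: CHO-S cells with Gal4-NCOR and VP16-NR2E3 two-hybrid luciferase reporter.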
Assay [9] in a line: miR-122 activators in hepatoma reporter cells, dose response, cell-based, Huh7 psiCHECK-miR122, Renilla luciferase, cherry-picked (AID 651956).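 Also: huh7 hepatoma cells stably carrying a psiCHECK-2 miR-122 sensor plasmid; renilla luciferase signal reporting endogenous miR-122 activity after 48 h compound exposure.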 In kind it is functional.
The nature of assay [10]: inhibitors of TNFa-stimulated NF-kB luciferase reporter, dose response, selectivity assay for EBV LMP1 NF-kB inhibitor project, HEK293 LMP1 reporter cells, dry powder, set 2 (AID 624369). In kind it is functional.
The nature of assay [11]: HEp-2 cell cytotoxicity, dose response, cytotoxicity control for RSV inhibitor project, HTS (AID 2410). In kind it is functional. The following applies: human respiratory syncytial virus.
In assay [12] the target is Induced myeloid leukemia cell differentiation protein Mcl-1 (Homo sapiens, UniProt Q07820). Format: functional.
The target of assay [13] is T3, Small ubiquitin-related modifier 2 (Homo sapiens, UniProt P61956). The assay can be described thus: SUMO2–SIM peptide binding inhibitors, dose response, selectivity assay for SUMO1 interaction inhibitor project, biochemical, fluorescence polarization, uHTS hits (AID 624385). In kind it is functional. The following applies: read-out: IC50_Mean. For orientation: Polarisation of emitted light reports the rotation of a fluorescent probe.

Assay [14] concerns the target T4, Small ubiquitin-related modifier 1 (Homo sapiens, UniProt P63165). Put plainly: inhibitors of SUMO1 peptide binding, dose response, biochemical, fluorescence polarization, uHTS hits (AID 624382). As to conditions: read-out: IC50_Mean. In kind it is functional.
In assay [15] the target is T3, Small ubiquitin-related modifier 2. Put plainly: inhibitors of SUMO2 protein-protein interaction, dose response, selectivity assay for SUMO1 interaction inhibitor project, biochemical, FRET, human SUMO2, uHTS hits (AID 624384). In kind it is functional. The following applies: read-out: IC50_Mean.
For assay [16], the target named is T4, Small ubiquitin-related modifier 1. The assay can be described thus: inhibitors of SUMO1 partner interactions, dose response, biochemical, FRET (AID 624383). In kind it is functional. The following applies: read-out: IC50_Mean.
A further assay deals with Troponin, cardiac muscle (Homo sapiens, UniProt P19429+P45379+P63316). Put plainly: Fluorescence-based biochemical high throughput dose response assay for activators of the calcium sensitivity of cardiac Regulated Thin Filaments (RTF). [Related pubchem assays (depositor defined):AID493008, AID493018, AID504382, AID504383]. In kind it is protein-complex assay.
The target of another assay is Protein S100-A4 (Homo sapiens, UniProt P26447). The assay can be described thus: S100A4-myosin IIA binding inhibitor potency, dose response, biochemical, fluorescence polarization, cherry-picked hits (AID 687001). Format: functional.
Assay [17] is described as follows: HEK293 cell viability, dose response, counter-screen for EBV LMP1 inhibitor project, dry powder, set 2 (AID 624374). Format: functional.

`CC(NC(=O)COC(=O)c1ccc([N+](=O)[O-])o1)c1ccccc1` (centres undefined): the values for the IC50 in assay [1] and in assay [2] were 7.54 µM (active) and 11.8 µM (active), respectively.

As for `O=C1C(Cl)=C(NCCN2CCOCC2)C(=O)c2ccccc21`, in [3], the IC50 is 22 µM (active). Also, the AC50 in assay [4] was 10.8 µM (active).

Regarding `CCc1nnc(NC(=O)c2ccc(S(=O)(=O)N3CCCc4ccccc43)cc2)o1`, the EC50 in assay [5] was 1.21 µM (active); on Streptokinase A, > 150 µM (not active); in assay [6], 2.19 µM (active); in assay [7], 5.54 µM (active); in the assay on Streptococcus it was 13.3 µM (active). Moreover, in [8], the IC50 was 4.33 µM (active).

In the case of `C[C@H]1CN([C@@H](C)CO)C(=O)c2cc(C#Cc3ccccc3F)cnc2O[C@@H]1CN(C)C(=O)C1CCCCC1`, the AC50 in assay [9] is 565 nM (active). This compound showed an AbsAC35 in assay [10] of 66.69 µM.

In the case of `COc1ccc(O)c(C(=O)c2cc(SCC(=O)O)c3nc4sc5c(c4c(=O)n3c2)CCCC5)c1`, the half-maximal cytotoxic concentration (CC50) in assay [11] was 29.1 µM (active). Further, the concentration giving a half-maximal response (EC50) in [5] is 2.67 µM (active); at Streptokinase A, 16.4 µM (inconclusive); with Streptococcus, 18.5 µM (inconclusive). The IC50 in assay [12] was 1.49 µM (active); in [13] it was 6.24 µM (active); in [14], 2.14 µM (active); in assay [15], 46.2 µM (inactive); in assay [16], 51.6 µM (inactive).

Turning to `Cc1ccc(N2C3=C(C(=O)CC(C)(C)C3)C(c3cn(C)nc3C)C3=C2CC(C)(C)CC3=O)cc1`, the EC50 on Troponin, cardiac muscle is 6.28 µM (active). In addition, the AC50 at Protein S100-A4 was 2.04 µM (active).

In assay [17], `Cc1noc(C)c1S(=O)(=O)Nc1ccc2c(c1)C(=O)N([C@@H](C)CO)C[C@H](C)[C@H](CN(C)Cc1ccc(C(F)(F)F)cc1)OCCCC[C@H](C)O2` came in with an AbsAC35 of 149.08 µM.

For the origin of these results see ChEMBL document CHEMBL1201862, “PubChem BioAssay data set” (2004).
